{
  "source": "patent US20260365696A1",
  "about": "“INHIBITORS OF PTP1B / NCK1 INTERACTION AND METHODS OF MAKING AND USING SAME” (Radella Pharmaceuticals LLC, priority 2023, published 2026)",
  "key": {"[1]": {"assay": "In vivo biodistribution / pharmacokinetics in C57/BL6 mice", "set-up": "species or system mouse", "conditions": "30 mg/kg IP", "procedure": "FIG. 6 is a graph showing MD20 concentrations in the indicated tissues in a mouse following intraperitoneal (IP) administration of the peptide at a dose of 30 mg/kg. Tissue samples were collected at 0, 0.25, 0.5, 1, 2, 4, 8, and 24 hours post-injection.\nBiodistribution: In vivo pharmacokinetic assessments of biodistribution of MD20 were performed in C57/BL6 male mice. All animals were maintained under a 12 h light/dark cycle with free access to food and water, where temperature and humidity was controlled according to UK Home Office regulations. MD20 compound was dissolved in PBS and administered to animals via intraperitoneal (IP) injection at a dose of 30 mg/kg. Mice were sacrificed at eight different time points (0.25, 0.5, 1, 3, 4, 6, 8 and 24 h house post-dosing; n=3 animals per time point, 24 animals in total). Terminal blood (in EDTA-containing tubes for plasma), perfused liver, muscle, adipose, kidney and brain samples were collected and kept on dry ice. Blood samples were centrifuged (4 °C, 21,100 g for 5 min) and the resulting plasma was transferred in to corresponding tubes. All samples were analyzed using LC-MS and appropriate methods."}, "db/db mice": {"test_system": "db/db mice", "assay": "db/db genetic mouse model of diabetes and obesity", "assay_type": "in vivo", "text": "Animals: All animals were housed and tested following European (Directive on the Protection of Animals used for Scientific Purposes, 2010/63/EU) and UK Home Office regulations. Experiments were approved by the University Ethics Board and carried out in accordance with the Animal (Scientific Procedures) Act 1986 and following ARRIVE guidelines. Db/db male mice (~4 weeks old) were purchased from Jackson, USA. All mice received standard mouse chow diet and had ad libitum access to food and water and were kept in a 12 h light/dark cycle.\nTreatments: Mice were assigned and counterbalanced according to their body weights in to the following groups: control PBS (n=10); MD18 at 15 mg/kg (n=7), 30 mg/kg (n=8), or 45 mg/kg (n=7); or MD20 at 15 mg/kg (n=9), 30 mg/kg (n=10) or 45 mg/kg (n=7). MD18 and MD20 were administered once daily via subcutaneous (SC) injection for 41 days, whereas control mice received a daily SC injection of vehicle (PBS). MD18 and MD20 were kept in −20 °C and dissolved in sterile phosphate buffered saline (PBS).\nBody weights and body mass composition: Body weights were recorded twice weekly during the study, and fat mass and lean mass composition was analysed using an EchoMRI scanner (EchoMedical Systems, Houston, TX, U.S.A.).\nMetabolic measurements: All animals were five-hour fasted before obtaining basal glucose measurements and GTT, ITT, and corresponding treatments were administered 1 hour before glucose measurements. Tail blood glucose was measured using AlphaTRAK 2 glucose strips and glucometer (Abbot, UK), or blood was collected and glucose assay (AB65333, Abcam) was performed where readings were too high to be recorded via glucometer. Human Actrapid Insulin (NovaNordisk) at 1 IU/kg dose was administered during ITT.\nSerum and liver assays: Trunk-derived blood was collected from 5 h-fasted mice into serum separator microtubes and kept at −80 °C. Serum was used for insulin (#EZRMI-13K, Merck) and leptin (#90030, Crystal Chem) analyses.\nStatistical analyses: Data were reported as means±SEM and analysed using one- or two-way ANOVA with Bonferroni post hoc tests, as appropriate. GraphPad Prism (V8, GraphPad Software, Inc., San Diego, California, USA) was used for statistical analyses. P-values <0.05 were considered significant."}, "GLUT4": {"test_system": "GLUT4", "assay": "GLUT4 gene expression in adipose tissue of LDLR−/− mice (qPCR)", "assay_type": "in vivo, mouse", "conditions": "30 mg/kg IP daily, vs control", "procedure": "(§1) FIGS. 30A-30E are graphs showing expression of various genes in tissues of HFD-fed LDLR−/− mice following 6 weeks of daily IP administration of MD20 (30 mg/kg) or a vehicle control. Mice were fasted for 5 hours at the conclusion of the experiment, liver and white adipose tissue (“WAT”) samples were collected, and gene expression was measured by qRT-PCR. Expression of glucose transporter 4 (GLUT4; FIG. 30A) and stearoyl-CoA-desaturase 1 (SCD1; FIG. 30B) was measured in adipose tissue, and expression of Glucose-6-phosphatase (G6P; FIG. 30C), Activating Transcription Factor 4 (ATF4; FIG. 30D), and 3-hydroxy-3-methylglutaryl (HMGCS; FIG. 30E) was measured in liver tissue. Data represent mean±SEM; statistical differences were determined using two tailed student's t-test.\n(§2) Gene expression analyses: Livers and adipose tissue were collected from 5 h-fasted animals and snap-frozen in liquid nitrogen. RNA was isolated from frozen liver tissue using TRIzole (Sigma, UK) and cDNA was synthesized from 1 μg RNA using bioscript cDNA synthesis kit (Bioline, UK), oligo (dT) 18 (SEQ ID NO: 170), and random hexamer primers.\n(§3) Genes of interest were amplified by quantitative PCR (qPCR) using gene-specific primers and GoTaq qPCR master mix (Promega, Madison, WI, USA)."}, "SCD1": {"test_system": "SCD1", "assay": "SCD1 gene expression in adipose tissue of LDLR−/− mice (qPCR)", "assay_type": "in vivo, mouse", "conditions": "30 mg/kg IP daily, vs control", "procedure": "as §1, §2, §3"}, "G6Pase": {"test_system": "G6Pase", "assay": "G6Pase gene expression in liver of LDLR−/− mice (qPCR)", "assay_type": "in vivo, mouse", "conditions": "30 mg/kg IP daily, vs control", "procedure": "as §1, §2, §3"}, "ATF4": {"test_system": "ATF4", "assay": "ATF4 gene expression in liver of LDLR−/− mice (qPCR)", "assay_type": "in vivo, mouse", "conditions": "30 mg/kg IP daily, vs control", "procedure": "as §1, §2, §3"}, "HMGCS": {"test_system": "HMGCS", "assay": "HMGCS gene expression in liver of LDLR−/− mice (qPCR)", "assay_type": "in vivo, mouse", "conditions": "30 mg/kg IP daily, vs control", "procedure": "as §1, §2, §3"}},
  "note": "Entries after “also recorded” stand apart in the source; their conditions may differ.",
  "data": [
    {"substance": "Ac-PRPPKR-NH2 [MD20, Ac-PRPPKR-NH2]", "values": [
      {"measurement": "detection in most tissues and plasma, time post-administration", "setting": "[1]", "value": "up to 5 h"},
      {"measurement": "stability and bioavailability in vivo", "setting": "[1]", "value": "good stability and bioavailability in vivo"},
      {"measurement": "detection in liver", "setting": "[1]; any time point", "value": "No MD20 was detected in the liver; also recorded: not detected in liver tissue at any time point"},
      {"measurement": "fasted insulin levels", "setting": "db/db mice; 15 mg/kg SC daily, about 6 weeks, vs control", "value": "significant decrease in insulin levels"},
      {"measurement": "leptin levels", "setting": "db/db mice; 30 mg/kg SC daily, about 6 weeks, vs control", "value": "significant decrease in leptin levels"},
      {"measurement": "basal glucose levels", "setting": "db/db mice; 5-hour-fasted, SC daily, vs vehicle", "value": "No significant differences"},
      {"measurement": "body weight gain", "setting": "db/db mice; 15, 30 or 45 mg/kg SC daily, significant overall interaction", "value": "inhibited body weight gain"},
      {"measurement": "glucose clearance during GTT", "setting": "db/db mice; SC daily, week 4, vs control, all doses", "value": "No significant differences in glucose clearance"},
      {"measurement": "insulin tolerance test (ITT)", "setting": "db/db mice; SC daily, week 6, 1 IU/kg insulin, vs control", "value": "did not detect any significant differences"},
      {"measurement": "GLUT4 gene expression in adipose tissue", "setting": "GLUT4", "value": "increased"},
      {"measurement": "SCD1 expression in adipose tissue", "setting": "SCD1", "value": "increased"},
      {"measurement": "G6Pase gene expression in liver", "setting": "G6Pase", "value": "decreased"},
      {"measurement": "ATF4 expression in liver", "setting": "ATF4", "value": "decreased"},
      {"measurement": "HMGCS expression", "setting": "HMGCS", "value": "upregulated"}
    ]}
  ]
}
